The values below come from paper PMC7891601 (Clinical Pharmacology and Therapeutics, 2020).

Structures are written as SMILES. Like-named read-outs stand apart in the source and are kept apart here.

Data set [1] is classed as in vivo, human. The note with it: for impact of metformin administration on CLr: control vs baseline; for AUC / CLr: adjusted geometric mean; for AUC: AUC0–24; for CLr: 0–24 h; for mean plasma concentration (Cav): mean ± SEM.
A further data set relates to MATE1/2‐K. The data set can be described thus: Nonlinear regression of CLr ratio vs pyrimethamine plasma concentration. The note with it: regression against pyrimethamine Cav. Type of data set: in vivo, human.
Data set [2] deals with MATE1. The note with it: read-out: Ki for MATE1‐mediated creatinine uptake; cited from earlier work.
Another data set concerns OAT2. Particulars: read-out: half‐maximal inhibitory concentration, OAT2; cited from earlier work.
For data set [3], the system named is MATE2‐K. Particulars: read-out: Ki for MATE2‐K‐mediated creatinine uptake; cited from earlier work.
For a further data set, the target named is T1, OCT2 (Homo sapiens, UniProt O15244).
T1 sequence (O15244 1-555): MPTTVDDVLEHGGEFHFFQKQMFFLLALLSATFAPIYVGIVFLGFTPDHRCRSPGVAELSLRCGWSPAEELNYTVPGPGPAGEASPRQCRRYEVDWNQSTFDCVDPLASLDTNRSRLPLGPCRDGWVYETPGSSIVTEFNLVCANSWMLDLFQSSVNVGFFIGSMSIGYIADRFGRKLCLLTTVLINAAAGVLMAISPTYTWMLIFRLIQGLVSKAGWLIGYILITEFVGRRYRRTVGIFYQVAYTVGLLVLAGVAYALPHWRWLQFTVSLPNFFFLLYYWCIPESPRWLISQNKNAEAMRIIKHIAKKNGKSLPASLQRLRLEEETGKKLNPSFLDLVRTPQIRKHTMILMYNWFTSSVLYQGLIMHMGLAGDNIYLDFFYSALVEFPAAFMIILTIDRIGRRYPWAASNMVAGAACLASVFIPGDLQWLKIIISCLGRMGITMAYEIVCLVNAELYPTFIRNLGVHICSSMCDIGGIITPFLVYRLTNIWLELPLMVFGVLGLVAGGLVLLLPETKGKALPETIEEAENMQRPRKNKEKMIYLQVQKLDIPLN
In kind it is cell-based. The note with it: In vitro Ki of pyrimethamine, HEK293.

Data set [4] deals with MATE2‐K (Homo sapiens, UniProt Q86VL8). Type of data set: cell-based. The note with it: In vitro Ki of pyrimethamine, HEK293.
Chain of MATE2‐K (Homo sapiens, UniProt Q86VL8) (Q86VL8 1-566 isoform Q86VL8-3): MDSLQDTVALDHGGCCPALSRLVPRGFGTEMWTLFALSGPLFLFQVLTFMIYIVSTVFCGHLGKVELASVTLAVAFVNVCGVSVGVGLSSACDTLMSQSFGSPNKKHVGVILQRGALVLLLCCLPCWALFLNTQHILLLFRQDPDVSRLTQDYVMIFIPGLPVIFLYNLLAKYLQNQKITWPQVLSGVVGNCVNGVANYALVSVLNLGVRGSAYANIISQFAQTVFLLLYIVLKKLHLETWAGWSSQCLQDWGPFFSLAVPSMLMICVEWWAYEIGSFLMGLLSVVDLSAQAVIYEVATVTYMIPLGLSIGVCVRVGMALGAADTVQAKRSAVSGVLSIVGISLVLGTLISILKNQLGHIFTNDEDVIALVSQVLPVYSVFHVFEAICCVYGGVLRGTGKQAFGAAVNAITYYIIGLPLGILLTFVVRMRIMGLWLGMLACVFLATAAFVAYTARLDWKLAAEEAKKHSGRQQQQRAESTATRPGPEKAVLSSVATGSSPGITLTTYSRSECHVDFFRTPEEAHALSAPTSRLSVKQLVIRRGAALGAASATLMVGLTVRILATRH
Data set [5] concerns the target T2, MATE1 (Homo sapiens, UniProt Q96FL8).
T2 sequence (Q96FL8 1-570): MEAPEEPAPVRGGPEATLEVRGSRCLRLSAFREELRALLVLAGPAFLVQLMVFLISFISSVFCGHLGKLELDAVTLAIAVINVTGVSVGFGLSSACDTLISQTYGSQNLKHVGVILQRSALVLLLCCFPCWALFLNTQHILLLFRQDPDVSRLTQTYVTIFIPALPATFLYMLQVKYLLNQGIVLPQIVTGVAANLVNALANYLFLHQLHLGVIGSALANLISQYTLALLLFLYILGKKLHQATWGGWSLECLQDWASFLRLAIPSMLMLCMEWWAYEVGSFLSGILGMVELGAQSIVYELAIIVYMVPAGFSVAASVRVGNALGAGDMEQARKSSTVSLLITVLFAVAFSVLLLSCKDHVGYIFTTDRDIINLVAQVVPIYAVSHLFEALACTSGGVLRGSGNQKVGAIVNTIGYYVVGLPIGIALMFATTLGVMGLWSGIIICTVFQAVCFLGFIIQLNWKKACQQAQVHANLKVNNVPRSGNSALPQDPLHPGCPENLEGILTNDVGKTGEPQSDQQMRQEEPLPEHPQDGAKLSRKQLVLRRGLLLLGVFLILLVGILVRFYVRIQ
In kind it is cell-based. The note with it: In vitro Ki of pyrimethamine, 2 min, HEK293.

For data set [6] the following is noted: in humans; cited from earlier work.
The next data set deals with T3, OAT1 (Homo sapiens, UniProt Q4U2R8).
T3 sequence (Q4U2R8 1-563): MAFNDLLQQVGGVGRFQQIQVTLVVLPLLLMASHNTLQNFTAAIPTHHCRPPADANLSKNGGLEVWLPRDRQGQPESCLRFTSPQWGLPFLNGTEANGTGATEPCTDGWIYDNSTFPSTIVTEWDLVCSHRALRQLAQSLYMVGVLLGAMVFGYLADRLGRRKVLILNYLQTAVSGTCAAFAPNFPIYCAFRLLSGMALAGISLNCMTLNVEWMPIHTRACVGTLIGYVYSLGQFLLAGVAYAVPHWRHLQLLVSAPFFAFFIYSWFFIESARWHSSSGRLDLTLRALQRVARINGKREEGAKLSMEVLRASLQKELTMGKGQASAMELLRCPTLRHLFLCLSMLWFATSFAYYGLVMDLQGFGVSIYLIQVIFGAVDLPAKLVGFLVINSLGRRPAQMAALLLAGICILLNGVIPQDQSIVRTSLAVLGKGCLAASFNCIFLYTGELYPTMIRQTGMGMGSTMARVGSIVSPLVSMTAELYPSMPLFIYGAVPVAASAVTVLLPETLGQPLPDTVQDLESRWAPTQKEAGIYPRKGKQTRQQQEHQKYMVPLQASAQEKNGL
The data set can be described thus: Inhibition of PAH uptake in OAT1-expressing HEK293 cells. In kind it is cell-based.

The target of data set [7] is T4, SLC29A1/equilibrative nucleoside transporter 1 (Homo sapiens, UniProt Q99808).
T4 sequence (Q99808 2-456): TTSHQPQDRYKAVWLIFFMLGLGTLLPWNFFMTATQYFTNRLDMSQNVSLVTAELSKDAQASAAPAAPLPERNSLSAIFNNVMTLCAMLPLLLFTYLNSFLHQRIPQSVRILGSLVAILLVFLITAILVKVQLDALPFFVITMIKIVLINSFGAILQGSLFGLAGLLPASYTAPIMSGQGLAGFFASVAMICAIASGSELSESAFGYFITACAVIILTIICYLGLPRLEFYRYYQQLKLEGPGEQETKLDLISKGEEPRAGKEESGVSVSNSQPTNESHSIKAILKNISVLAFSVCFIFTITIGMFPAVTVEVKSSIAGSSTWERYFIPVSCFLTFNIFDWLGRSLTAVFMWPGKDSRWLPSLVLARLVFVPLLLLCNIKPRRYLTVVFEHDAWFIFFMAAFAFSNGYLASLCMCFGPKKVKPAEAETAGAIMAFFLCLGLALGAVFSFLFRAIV
Kind of data set: Uptake of m1A in HEK293 cells with and without inhibitors. In kind it is cell-based. Particulars: m1A 100 μM, HEK293, 15 min, inhibitor 10 μM.

A further data set concerns the target T5, OAT3 (Homo sapiens, UniProt Q8TCC7).
T5 sequence (Q8TCC7 1-542): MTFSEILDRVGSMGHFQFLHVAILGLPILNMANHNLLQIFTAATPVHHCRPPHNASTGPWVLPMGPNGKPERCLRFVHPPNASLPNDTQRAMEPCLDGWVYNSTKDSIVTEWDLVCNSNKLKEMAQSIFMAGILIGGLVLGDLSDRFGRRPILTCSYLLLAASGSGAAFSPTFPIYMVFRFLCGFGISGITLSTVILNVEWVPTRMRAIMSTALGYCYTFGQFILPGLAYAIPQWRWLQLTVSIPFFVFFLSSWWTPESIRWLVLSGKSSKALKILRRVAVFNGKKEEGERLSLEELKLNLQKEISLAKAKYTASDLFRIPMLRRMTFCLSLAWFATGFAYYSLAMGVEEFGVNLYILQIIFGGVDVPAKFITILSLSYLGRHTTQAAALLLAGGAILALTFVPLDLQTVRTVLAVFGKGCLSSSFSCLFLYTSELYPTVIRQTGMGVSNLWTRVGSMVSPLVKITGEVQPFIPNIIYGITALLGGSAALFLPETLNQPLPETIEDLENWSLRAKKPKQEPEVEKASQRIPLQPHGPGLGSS
The data set can be described thus: Inhibition of ES uptake in OAT3-expressing HEK293 cells. Type of data set: cell-based.

Where [8] appears, read: pyrimethamine 75 mg + metformin.
Where [9] appears, read: control phase (metformin 500 mg alone).
Where [10] appears, read: pyrimethamine 10 mg + metformin.
[11] abbreviates: pyrimethamine 25 mg + metformin.

For the compound `CN1CC(=O)NC1=N` [Creatinine, creatinine], in data set [1], the “impact of metformin administration on CLr” value is less than 7%. Besides, in the data set on MATE1/2‐K, the “f PYR (contribution of tubular secretion to urinary excretion)” value came to 26%.
Turning to `CN(C)C(=N)N=C(N)N` [Metformin, metformin], the results for the “decrease in CLr by pyrimethamine” value in [1] (pyrimethamine 10 mg vs control), in data set [1] (pyrimethamine 25 mg vs control) and in data set [1] (pyrimethamine 75 mg vs control) were 12%, 34% and 55%, respectively. For the same compound, the “increase in AUC by pyrimethamine” value in [1] (pyrimethamine 25 mg vs control) is on record as 24%; in [1] (pyrimethamine 75 mg vs control) it was 69%. Moreover, the AUC in data set [1] (setting [8]) came to 122.9 µM·h.
For `Cc1ncc(CO)c(C(=O)O)c1O` [PDA, pyridoxic acid], the CLr in data set [1] (setting [9]) turned out to be 545.1 mL/min; in [1] (setting [10]), 584.6 mL/min; in data set [1] (setting [11]), 603.1 mL/min; in data set [1] (setting [8]), 423.7 mL/min. The AUC in data set [1] (setting [9]) stood at 0.2912 µM·h; in [1] (setting [10]) it was 0.2142 µM·h; in data set [1] (setting [11]), 0.1772 µM·h; in [1] (setting [8]), 0.1647 µM·h. In addition, in [1] (pyrimethamine 75 mg vs control), the “decrease in CLr by pyrimethamine” value amounted to 22%.
Take `Cn1cnc2c(ncn2[C@@H]2O[C@H](CO)[C@@H](O)[C@H]2O)c1=N` [m^1A, N ^1‐methyladenosine]: the “contribution of the tubular secretion” value in data set [1] (assumed from CLr vs creatinine clearance at 75 mg) is 41%. The “CLr relative to creatinine clearance” value in [1] (control conditions, vs corresponding creatinine clearance) turned out to be 1.3 fold. The “impact of metformin administration on CLr” value in data set [1] is on record as less than 7%.
In the case of `CCc1nc(N)nc(N)c1-c1ccc(Cl)cc1` [pyrimethamine], the inhibition constant (Ki) was 170 nM with MATE1 [2]; 220 nM with MATE2‐K [3]; 41200 ± 9100 nM at OCT2 (OCT2, substrate 1‐NMN 10 μM, 2 min); 466 ± 43 nM on OCT2 (OCT2, substrate m1A 100 μM, 30 min); 37900 ± 5600 nM on OCT2 (OCT2, substrate metformin 10 μM, 2 min); 82.1 ± 18 nM on MATE2‐K [4] (substrate 1‐NMN 10 μM, 2 min). In addition, the inhibition constant (Ki) came to 68 ± 15 nM on MATE2‐K [4] (substrate m1A 100 μM, 30 min); 94.1 ± 16 nM on MATE2‐K [4] (substrate metformin 10 μM, 2 min); 125 ± 26 nM at MATE1 [5] (MATE1, substrate 1‐NMN 10 μM); 154 ± 29 nM on MATE1 [5] (MATE1, substrate metformin 10 μM). Further, the “mean plasma concentration (Cav)” value in data set [1] (10 mg single oral dose) amounted to 287 ± 24 nM; in data set [1] (25 mg single oral dose), 781 ± 31 nM; in data set [1] (75 mg single oral dose), 2470 ± 180 nM. Moreover, the IC50 in the data set on OAT2 is greater than 100000 nM; against OAT1, 241000 ± 55000 nM; against OAT3, 9690 ± 2270 nM. In [6], the “elimination half‐life” value is “ca. 100 hours”. Further, the “effect of inhibitor on uptake of m1A (ENT1)” value in data set [7] was “minimal”.

For orientation: AUC means the area under the concentration-time curve, a measure of exposure. In general, Ki refers to the equilibrium dissociation constant of an inhibitor or competing ligand from its target.
